ChEMBL document CHEMBL1148228, “Synthesis of N tau-arylhistidine derivatives via direct N-arylation” (Bioorg Med Chem Lett, 2004)

Species on record: Oryctolagus cuniculus
Assay: Inhibitory concentration of compound against antigen binding site in immunized rabbits
Type: functional, organism-based

IC50: ~1000 nM
SMILES: CC(=O)NC(Cc1cn(-c2ccc(Br)cc2)cn1)C(=O)O (stereo unspecified)
